Assays:
knee joint = experiment: Injection of resiniferatoxin solution into the intracapsular space of a patient's knee joint; assay type: in vivo, human
Experimental: (§1) Under the optionally simultaneous (image converter, CT, sonography, MRI, etc.) or subsequent (x-ray, CT, MRI, sonography, arthroscopy, etc.) imaging control, the therapist brought an injection needle into the joint space of a knee joint and injected 9 mL of a 500 nmolar solution (approximately 0.003 mg) of resiniferatoxin into the intracapsular space. The patient noted a clear alleviation of their symptoms already 14 hours after the intervention. This alleviation lasted for more than 6 months.
Under the optionally simultaneous (image converter, CT, sonography, MRI, arthroscopy, etc.) or subsequent (x-ray, CT, MRI, sonography, etc.) imaging control, the therapist brought an injection needle into the joint space of a knee joint and injected […] of a 500 nmolar solution (approximately 0.006 mg) of resiniferatoxin into the intracapsular space. The patient noted a clear alleviation of their symptoms already a few days after the intervention. This alleviation lasted for more than 6 months.
The injected solution corresponded to that of Example 1 with the difference that, for the imaging method to be used, 5 mL of a visible contrasting agent (Iopamidol) was added at a concentration of 50 g/100 mL. After the injection, this contrasting agent spread out within the joint capsule and documented the position of the injection needle and the distribution of the RTX within the joint capsule. The injected solution, containing RTX, was drawn off again directly after the injection. It could, however, also be drawn off after a defined, substance-dependent time of action or not be drawn off at all. The patient noted a clear alleviation of their symptoms already 15 hours after the intervention. This alleviation lasted for more than 8 months.
as §1, with “nM (approx.” for “nmolar solution (approximately”, “mg) solution” for “mg)”, “resiniferatoxin, buffered with a buffer to a pH of 8.5, together physiological salt solution” for “resiniferatoxin”, “a few minutes” for “14 hours”
Under the optionally simultaneous (image converter, CT, sonography, MRI, etc.) or subsequent (x-ray, CT, MRI, sonography, arthroscopy, etc.) imaging control, the therapist, brought an injection needle into the joint space of a knee joint and injected 9 mL of a 500 nmolar solution (approximately 0.003 mg) of resiniferatoxin, buffered to a pH of 6.5 with a buffer, together with a physiological salt solution into the intracapsular space.
Under the optionally simultaneous (image converter, CT, sonography, MRI, etc.) or subsequent (x-ray, CT, MRI, sonography, arthroscopy, etc.) imaging control, the therapist, brought an injection needle into the joint space of a knee joint and injected 9 mL of a 500 nmolar solution (approximately 0.003 mg) of resiniferatoxin, in a physiological Ringer solution with 10 mmolar Ca2+ into the intracapsular space.

affected joint = experiment: Continuous infusion of resiniferatoxin solution into the affected joint via infusion catheter; assay type: in vivo, human; settings: Example 4: 100 nmolar
Experimental: The therapist placed a thin infusion catheter, similar to an epidural catheter, into the affected joint and, with a perfuser, injected a solution of […] of 100 nmolar of resiniferatoxin into the affected joint at a rate of 1-10 mL/h for 12 hours. Optionally, they also placed a drainage catheter with an optionally defined drainage resistance (such as 20 mm Hg), in order to achieve a liquid turnover. With this method, the therapist achieved a uniform infiltration of the painful joint, without large concentration peaks. Moreover, it was possible to define the period of action better.
The patient noted a clear alleviation of their symptoms already 12 hours after the intervention. This alleviation lasted for more than 1 year.

postoperative pain = experiment: Injection of resiniferatoxin after knee or hip joint prosthesis implantation (postoperative pain); assay type: in vivo, human
Experimental: After a knee joint prosthesis had been implanted, the therapist injected 50 mL of a solution of 100 nmolar (approximately 0.001 mg) solution of resiniferatoxin into the joint capsule, which had been closed off once again.
After a hip joint prosthesis had been implanted, the therapist injected 50 mL of a solution of 100 nmolar (approximately 0.001 mg) solution of resiniferatoxin into the periprosthetic region without a capsule.

[1] = test system: painful, septic loosening of a total hip endoprosthesis; experiment: Injection into (neo)-capsule about the prosthesis in painful, septic loosening of a total hip endoprosthesis; assay type: in vivo, human
Experimental: A solution of 5 μmolar (approximately 0.03 mg) solution of resiniferatoxin was injected into the (neo)-capsule about the prosthesis of a patient with a painful, septic loosening of a total hip endoprosthesis. […] Optionally, this treatment may be supported with systemically administered antibiotics (such as 450 mg of Rifampicin, 750 mg of ciproflaxacin).

shoulder joint = experiment: Injection into shoulder joint of patient with painful capsulitis of joints (frozen shoulder); assay type: in vivo, human; settings: for joint mobility lost due to capsulitis: with physiotherapy
Experimental: The shoulder joint of a patient with painful capsulitis of joints (frozen shoulder) was injected with 9 mL of a 100 nmolar (approximately 0.001 mg) solution of resiniferatoxin in physiological salt solution. Once again, it was possible to check the distribution of the substance by adding the appropriate contrasting agent and employing an imaging procedure. Optionally, a substance with antiphlogistic activity was admixed. […] For this application, only a temporary analgesia (2-3 weeks) is desired. For this reason, the concentration of the neurotoxic substances, if anything, was kept low.
The shoulder joint of a patient with painful capsulitis of joints (frozen shoulder) was injected with 3 mL of a 500 nmolar (approximately 0.001 mg) solution of resiniferatoxin in physiological salt solution.

[2] = test system: chronically inflamed bursa (Bursa trochenterica); experiment: Injection into chronically inflamed bursa (Bursa trochenterica); assay type: in vivo, human
Experimental: The therapist injected 5 mL of a solution of a 500 nmolar (approximately 0.001 mg) solution of resiniferatoxin, buffered to a pH of 8.5 with a buffer, together with physiological salt solution as solvent, into a chronically inflamed bursa (Bursa trochenterica) over the greater trochanter of the hip. Within 60 minutes, the symptoms of the patient disappeared and the patient remained asymptomatic at this place for several years.
The therapist injected 50 mL of a 100 nmolar (approximately 0.001 mg) solution of resiniferatoxin in glycerin or Ringer lactate as solvent. Within 60 minutes, the symptoms of the patient disappeared and the patient remained asymptomatic at this place for several years.

[3] = Local application of RTX without local anesthetic, compared with capsaicin or with combination with local anesthetic; assay type: in vivo
Source text: Moreover, it is free of inflammation and pain. In particular, this preparation may be used without using ethanol, which otherwise is always necessary for the known intravesical administration. It is a further surprising advantage of the use without local or general anesthesia that, due to the injection, a warm, pleasant sensation sets in, which decisively supports combating pain. In this way, an amelioration of pain is achieved, which surpasses that of a combination with local anesthetics. This may also be explained by the antagonistic effect, which the local anesthetics have for vanilloid receptor agonists since they partially block the desired neurotoxic effect of vanilloids.

[4] = Example 1: 9 mL of 500 nmolar solution, knee joint, intracapsular
[5] = Example 2: 20 mL of 500 nmolar solution, knee joint, intracapsular
[6] = Example 3: solution of Example 1 plus 5 mL Iopamidol 50 g/100 mL, drawn off directly after injection
[7] = Example 8: 9 mL of 500 nM solution buffered to pH 8.5, physiological salt solution, knee joint
[8] = Example 9: 9 mL of 500 nmolar solution buffered to pH 6.5, physiological salt solution, knee joint
[9] = Example 10: 9 mL of 500 nmolar solution in Ringer solution with 10 mmolar Ca2+, knee joint
[10] = 1-10 mL/h for 12 hours via catheter
[11] = Example 7: 5 μmolar solution into (neo)-capsule about the prosthesis
[12] = Example 11: 9 mL of 100 nmolar solution in physiological salt solution, shoulder joint
[13] = Example 12: 3 mL of 500 nmolar solution in physiological salt solution, shoulder joint
[14] = Example 13: 5 mL of 500 nmolar solution buffered to pH 8.5, physiological salt solution, bursa over greater trochanter
[15] = Example 14: 50 mL of 100 nmolar solution in glycerin or Ringer lactate

Structure (SMILES): C=C(C)[C@]12C[C@@H](C)[C@@]34O[C@](Cc5ccccc5)(O[C@@H]1[C@@H]3C=C(COC(=O)Cc1ccc(O)c(OC)c1)C[C@]1(O)C(=O)C(C)=C[C@@H]41)O2 [resiniferatoxin]
- duration of alleviation (knee joint; [4]): more than 6 months
- time to clear alleviation of symptoms after the intervention (knee joint; [4]): 14 h
- duration of alleviation (knee joint; [5]): more than 6 months
- time to clear alleviation of symptoms after the intervention (knee joint; [5]): a few days
- duration of alleviation (knee joint; [6]): more than 8 months
- time to clear alleviation of symptoms after the intervention (knee joint; [6]): 15 h
- duration of alleviation (knee joint; [7]): more than 6 months
- time to clear alleviation of symptoms after the intervention (knee joint; [7]): a few minutes
- duration of alleviation (knee joint; [8]): more than 6 months
- time to clear alleviation of symptoms after the intervention (knee joint; [8]): Within minutes
- duration of alleviation (knee joint; [9]): more than 6 months
- time to clear alleviation of symptoms after the intervention (knee joint; [9]): Within minutes
- duration of alleviation (affected joint; [10]): more than 1 year
- time to clear alleviation of symptoms after the intervention (affected joint; [10]): 12 h
- inflamed tissue at subsequent arthroscopies (affected joint; 1-10 mL/h for 12 hours, arthroscopies after 1, 2, 7, 14 and 28 days): only a very little inflamed tissue was present
- postoperative pain (postoperative pain; Example 5: 50 mL of 100 nmolar solution into closed joint capsule after knee joint prosthesis): possible to minimize postoperative pain
- postoperative pain (postoperative pain; Example 6: 50 mL of 100 nmolar solution into periprosthetic region without capsule after hip joint prosthesis): possible to minimize postoperative pain
- bone substance about the prosthesis (radiological) ([1]; Example 7: 5 μmolar solution): the bone substance had consolidated about the prosthesis
- duration of alleviation of pain [1, 11]: more than one year
- time to alleviation of pain [1, 11]: 6 to 12 h
- infection about the prosthesis ([1]; Example 7: 5 μmolar solution, diffusion of RTX along the shaft and about the socket): brought very much under control
- pain after injection (shoulder joint; [12]): alleviated permanently
- time to alleviation of pain after the injection (shoulder joint; [12]): A few minutes
- joint mobility lost due to capsulitis (shoulder joint; Example 11: 9 mL of 100 nmolar solution): able to regain the mobility
- pain after injection (shoulder joint; [13]): abated permanently
- time to abatement of pain after the injection (shoulder joint; [13]): A few minutes
- joint mobility lost due to capsulitis (shoulder joint; Example 12: 3 mL of 500 nmolar solution): regained the mobility lost due to capsulitis
- duration patient remained asymptomatic [2, 14]: several years
- time to disappearance of symptoms [2, 14]: ≤ 60 min
- duration patient remained asymptomatic [2, 15]: several years
- time to disappearance of symptoms [2, 15]: ≤ 60 min
- local tolerability (burning, inflammation of tissue) ([3]; applied locally, without a local anesthetic): no burning and also no inflammation of tissue
- effectiveness of RTX by itself versus injection together with a local anesthetic ([3]; local intraarticular injection at a very low concentration): more effective than an injection together with a local anesthetic

Reference: patent US9044452B2, “Use of resiniferatoxin (RTX) for producing an agent for treating joint pains and method for applying said agent” (MESTEX AG, priority 2004, dated 2015)
